# Reference: patent US20030134893A1, “Combination chemotherapy” (priority 1999, published 2003)
# “And” between values parts separate entries of the source, which are not always exact repeats. Equal values may be shown once. Read-outs that look alike come from different tables or passages of the source. Marks after values point to notes of the source that are not given here.
# How the values were obtained:
# [1] = system: nonsmall cell lung cancer, renal cell cancer and other cancers; test: Phase 2 program with CI-994 as a single agent
# solid tumor = test: Phase 1 dose-escalation clinical study of CI-994 (solid tumor); assay type: in vivo, human
# Experimental: In one such study, patients were treated using a dose-escalation scheme that increased both the daily dose and the duration of treatment. The majority of patients had received extensive prior chemotherapy. The maximum-tolerated dose (MTD) was 15 mg/m^2/day when the duration of treatment was 14 consecutive days. To allow more prolonged treatment, lower doses were studied. Using a schedule of 8 weeks of continuous daily therapy, followed by a 2-week ‘drug holiday’, the MTD was 8 mg/m^2/day. […] Blood counts tended to stabilize even with continued treatment and to recover quickly when treatment was stopped.
# [2] = system: LC-12 Mouse Lung Carcinoma
# [3] = Route of elimination of radiolabeled drug, monkeys; assay type: in vivo; conditions: within 24 hours
# Experimental: (§1) Mass balance/route of elimination studies have not been conducted in humans. Animal studies indicate that the principal route of elimination is via renal excretion, with 80% and 62% of radiolabeled drug appearing in the urine of monkeys and rats, respectively, within 24 hours.
# [4] = Pharmacokinetics of oral CI-994 in the solid tumor Phase 1 study, incl. food effect; assay type: in vivo, human; conditions: fasted patients
# in vivo [5] = conditions: female, BALB/C, mouse, po
# [6] = system: relapsed acute leukemia or other hematologic malignancy; test: Phase 1 study of CI-994, once daily high-dose 5-day schedule; assay type: in vivo
# Experimental: An additional Phase 1 study was conducted in patients with relapsed acute leukemia or other hematologic malignancy using a once daily high-dose 5-day dosing schedule. The MTD was 135 mg/m^2/day. […] Hematologic toxicities cannot be assessed in this patient population.
# [7] = system: LC-12 squamous cell lung carcinoma tumor; test: in vivo
# Experimental: (§2) Each agent was also evaluated alone, and treatment groups were compared to untreated controls.
# in vivo [8] = conditions: female, mouse, in vivo
# Experimental: as §2
# [9] = Route of elimination of radiolabeled drug, rats; assay type: in vivo; conditions: within 24 hours
# Experimental: as §1
# in vivo [10] = conditions: female, mouse, iv
# Experimental: The test mice were obtained from Charles River Laboratories, Wilmington, Mass. On Day 0 of the test, each mouse was surgically implanted (subcutaneously) with a fragment of LC-12 squamous cell lung carcinoma tumor weighing approximately 30 to 60 mg. The tumor fragments were implanted using a 12 gauge trocar. The mice were weighed weekly, and tumor size (width and length in mm) were measured two times each week with standard calipers. Tumor mass for each animal was calculated according to the formula: [formula]
# where “a” is width of the tumor in mm, and “b” is the length in mm. […] Antitumor activity was assessed according to four parameters: (1) partial tumor response (PR); (2) complete tumor response (CR); (3) tumor-free survival (TF); and (4) tumor growth delay (TL). Tumor growth delay is expressed as a T−C value, where T is the median days required for the treatment group tumors to reach a predetermined size (e.g., 750 mg), and C is the median days for the control group tumors to reach this size. From the tumor growth delay value, the net log10 tumor cell kill is calculated as follows:
# where Td is the days for the tumor mass to double, and Rx is the total days of treatment. […] The conversion of the T−C values to log10 cell kill is possible because the Td for tumors regrowing after treatment is approximately the same as that for untreated control mice. […]
# [11] = CI-994 7.5 mg/kg/day oral Days 8-12,15-19, 22-26
# [12] = CI-994 15.0 mg/kg/day oral Days 8-12,15-19, 22-26
# [13] = CI-994 30.0 mg/kg/day oral Days 8-12,15-19, 22-26
# [14] = CI-994 60.0 mg/kg/day oral Days 8-12,15-19, 22-26
# [15] = CI-994 60.0 mg/kg/day oral Days 8-12,15-19, 22-26, 60 mg/kg/day
# [16] = CI-994 15 mg/kg/day Days 11-15,18-22,25-29
# [17] = Carboplatin 15 mg/kg/day ip Days 8-12
# [18] = Carboplatin 20 mg/kg/day ip Days 8-12
# [19] = Carboplatin 30 mg/kg/day Days 11-15
# [20] = Paclitaxel 15 mg/kg/day Days 11-15
compound,measurement,setting,value
"CC(=O)Nc1ccc(C(=O)Nc2ccccc2N)cc1 [CI-994, 4-acetylamino-N-(2′-aminophenyl)-benzamide]",clinical benefit,[1]; 8 mg/m^2 given orally daily,Clinical benefit has been reported in patients with renal cell cancer
same,dose-limiting toxicity,[1]; 8 mg/m^2 given orally daily,Thrombocytopenia
same,infrequent neurologic adverse events,[1]; 8 mg/m^2 given orally daily,"paresthesias, confusion, and hallucinations"
same,objective responses,[1]; 8 mg/m^2 given orally daily,Objective responses have been seen in patients with nonsmall cell lung cancer
same,dose increases tolerated by some patients,"[1]; oral daily, starting from 8 mg/m^2",10 mg/m^2
same,MTD,"solid tumor; 8 weeks of continuous daily therapy, followed by a 2-week drug holiday, patients",8 mg/m^2/day
same,maximum-tolerated dose (MTD),"solid tumor; duration of treatment 14 consecutive days, patients",15 mg/m^2/day
same,cumulative toxicity,"solid tumor; human, in vivo",no evidence of cumulative toxicity
same,dose-limiting toxicity,"solid tumor; human, in vivo",thrombocytopenia or neutropenia
same,other toxicities,"solid tumor; human, in vivo","nausea, vomiting, diarrhea, anorexia, fatigue, mucositis, headache, dehydration, and increases in liver and renal function test values"
same,time of occurrence of the dose-limiting toxicity after the start of therapy,"solid tumor; human, in vivo",≤ 1 month
same,responses,"solid tumor; patients, majority with extensive prior chemotherapy",one partial response in a heavily pretreated patient with NSCLC and a minor response in one patient each with renal cell cancer and NSCLC
same,CR (complete response),[2]; [11],2/10
same,Net Log10 Kill,[2]; [11],−1.2 log10
same,No. Tumor Free (Day 71),[2]; [11],2/10
same,No. of Deaths,[2]; [11],0/10
same,PR (partial response),[2]; [11],0/10
same,T-C (days to reach 750 mg),[2]; [11],1.0 days
same,CR (complete response),[2]; [12],1/10
same,Net Log10 Kill,[2]; [12],−1.3 log10
same,No. Tumor Free (Day 71),[2]; [12],1/10
same,No. of Deaths,[2]; [12],0/10
same,PR (partial response),[2]; [12],0/10
same,T-C (days to reach 750 mg),[2]; [12],0.9 days
same,complete responses,[2]; CI-994 30 mg/kg,20%
same,partial responses,[2]; CI-994 30 mg/kg,10%
same,CR (complete response),[2]; [13],2/10
same,Net Log10 Kill,[2]; [13],−0.7 log10
same,No. Tumor Free (Day 71),[2]; [13],2/10
same,No. of Deaths,[2]; [13],0/10
same,PR (partial response),[2]; [13],1/10
same,T-C (days to reach 750 mg),[2]; [13],8.2 days
same,complete responses,[2]; CI-994 60 mg/kg (MTD),50%
same,CR (complete response),[2]; [14],5/10
same,No. of Deaths,[2]; [14],0/10
same,T-C (days to reach 750 mg),[2]; [14],19.4 days
same,No. Tumor Free (Day 71),[2]; [15],5/10
same,PR (partial response),[2]; [15],no partial responses and 0/10
same,antitumor activity,[2]; lower CI-994 doses (below 30 mg/kg),Little antitumor activity
same,% Weight Change,"[2]; mouse, in vivo, po, 7.5 mg/kg/day",+4.4%
same,% Weight Change,"[2]; mouse, in vivo, po, 15 mg/kg/day",+4.9%
same,% Weight Change,"[2]; mouse, in vivo, po, 30 mg/kg/day",+2.0%
same,% Weight Change,"[2]; mouse, in vivo, po, 60 mg/kg/day",−1.5%
same,radiolabeled drug appearing in the urine,[3],80%
same,dose dependence of terminal elimination half-life and apparent clearance rate,[4],independent of the dose administered
same,maximum plasma concentrations with increasing dose levels,[4],less than dose-proportional
same,time to maximum blood level after ingestion,[4]; preliminary results,1 to 2 h
same,half-life,"[4]; human, plasma, preliminary results, read-out: terminal elimination half-life (converted)",~15 h
same,MTD at 15 days,in vivo [5],60 mg/kg
same,dose-limiting toxicity,[6]; in vivo,acute CNS toxicity manifested as sedation and somnolence
same,other adverse events,[6]; in vivo,"nausea, vomiting, hypotension resulting from dehydration, hypocalcemia, headache, and in one patient each, acute pancreatitis, a pyramidal syndrome characterized by hyperreflexia and bilateral Babinski reflexes, and sepsis"
same,MTD,"[6]; once daily high-dose 5-day dosing schedule, patients",135 mg/m^2/day
same,tumor lysis syndrome,[6]; patients with AML,"Two patients with AML developed tumor lysis syndrome, resulting in one death"
same,CR (complete response),[7]; [16],0
same,Net log10 Kill,[7]; [16],−1.3 log10
same,No. Tumor Free (40 days after the last treatment),[7]; [16],0
same,Nonspecific Deaths,[7]; [16],0/10
same,PR (partial response),[7]; [16],0
same,T-C (days to reach 750 mg),[7]; [16],4.6 days
same,complete response rate,[7]; CI-994 60 mg/kg/day (MTD),30%
same,T-C (days to reach 750 mg),"[7]; CI-994 60 mg/kg/day Days 11-15,18-22,25-29",16.2 days
same,% Weight Change,"[7]; mouse, in vivo, 15 mg/kg/day",+4.0%
same,% Weight Change,"[7]; mouse, in vivo, 30 mg/kg/day",13.4%
same,% Weight Change,"[7]; mouse, in vivo, 60 mg/kg/day",16.2%
same,MTD,in vivo [8]; BALB/C,60 mg/kg/day
same,radiolabeled drug appearing in the urine,[9],62%
"N.N.O=C([O-])C1(C(=O)[O-])CCC1.[Pt+2] [Carboplatin, carboplatin, reference compound]",% Weight Change,[2]; [17],−2.0%
same,CR (complete response),[2]; [17],1/10
same,Net Log10 Kill,[2]; [17],+0.3 log10
same,No. Tumor Free (Day 71),[2]; [17],0/9
same,No. of Deaths,[2]; [17],1/10^h
same,PR (partial response),[2]; [17],no partial responses and 0/10
same,T-C (days to reach 750 mg),[2]; [17],8.3 days
same,% Weight Change,[2]; [18],−5.5%
same,CR (complete response),[2]; [18],2/10
same,Net Log10 Kill,[2]; [18],+0.1 log10
same,No. Tumor Free (Day 71),[2]; [18],2/10
same,No. of Deaths,[2]; [18],0/10
same,PR (partial response),[2]; [18],1/10
same,T-C (days to reach 750 mg),[2]; [18],5.9 days
same,complete responses,[2]; carboplatin 20 mg/kg (MTD),20%
same,partial responses,[2]; carboplatin 20 mg/kg (MTD),10%
same,complete responses,[2]; carboplatin at 75% of its MTD (15 mg/kg),Ten percent
same,MTD of carboplatin,"[2]; ip, once a day, for 5 days",20 mg/kg
same,% Weight Change,[7]; [19],−3.9%
same,Net log10 Kill,[7]; [19],0.3 log10
same,No. Tumor Free (40 days after the last treatment),[7]; [19],0
same,Nonspecific Deaths,[7]; [19],0/10
same,T-C (days to reach 750 mg),[7]; [19],6.9 days
same,MTD of carboplatin,[7]; given alone,30 mg/kg
"CC(=O)O[C@H]1C(=O)[C@@]2(C)[C@H]([C@H](OC(=O)c3ccccc3)[C@]3(O)C[C@H](OC(=O)[C@H](O)[C@@H](NC(=O)c4ccccc4)c4ccccc4)C(C)=C1C3(C)C)[C@]1(OC(C)=O)CO[C@@H]1C[C@@H]2O [Taxol, paclitaxel, reference compound]",Net log10 Kill,[7]; [20],0.0 log10
same,No. Tumor Free (40 days after the last treatment),[7]; [20],0
same,Nonspecific Deaths,[7]; [20],0/10
same,T-C (days to reach 750 mg),[7]; [20],3.7 days
same,MTD,in vivo [8]; 15 mg/kg,15 mg/kg
same,MTD,in vivo [10],20 mg/kg/day
